Test results taken from article PMC5431435, “A short artificial antimicrobial peptide shows potential to prevent or treat bone infections” (Scientific Reports, 2017).

Key:
[1] = system: human primary osteoblast-like cells; assay: Scratch assay (cell migration); assay type: cell-based
Description: (3) The effect of AMP2 on cell migration was assessed. Human primary osteoblast-like cells were seeded into 24-well plates and cultured in cultivation media. After reaching confluence, medium was removed and a cross scratch was made using a 10 µl pipette tip using a modified protocol. […] Using ImageJ software (version 1.4.8.; https://imagej.nih.gov/ij/) the diameter of the scratch was measured and the closure over time calculated (n = 3).

[2] = system: S. aureus internalized in human primary osteoblast-like cells; assay: Effect against internalized bacteria; assay type: cell-based, Staphylococcus aureus; settings: CM with 1% FCS, n = 7
Description: Human primary osteoblast-like cells were cultivated in 24-well plates with cultivation medium until they reached a minimum confluence of 80%. For the experiment, cells were washed and S. aureus (ATCC 29213) in cultivation medium added (~2 × 10^7 cfu/ml). After an incubation of 45 minutes, extracellular bacteria were killed using 200 µg/ml gentamicin dissolved in CM with 10% FCS, without P/S. After 1 hour incubation, gentamicin solution was removed, cells washed three times and AMP2 (33 and 67 µg/ml) in CM with only 1% FCS + no P/S added for 4 and 24 hours. As reference, 7.5 µg/ml rifampicin was used. All incubation steps were done in an incubator with 37 °C, 95% humidity and 5% CO2. For determination of the internalized bacteria, cells were lysed and the supernatant plated on CA plates. Experiment were done with n = 7.

[3] = system: S. epidermidis biofilms; assay: FISH of biofilm grown on polyurethane waver; assay type: cell-based, Staphylococcus epidermidis; settings: n = 10 pictures
Description: Fluorescence in situ hybridization (FISH) was used to visualize the effect of the AMP2 on a biofilm. S. epidermidis (PIA 8400) biofilm was grown on 5 × 8 mm polyurethane (PU) waver (Epurex Films, Germany) in the incubator at 37 °C for 72 hours under aerobic conditions. After biofilm formation, medium was replaced by MH^++ medium containing different concentrations of the AMP2 (4 or 8 µg/ml) or phosphate buffered saline as control. After further 24 hours of incubation on a rotation shaker, waver were removed, fixed and embedded in methylmethacrylate (Technovit 8100, Kulzer, Germany) and sectioned as described elsewhere. To visualize the biofilm, samples were stained with nucleic acid stain DAPI and the Cy3-labeled Staphylococcus-specific FISH-probe STAPHY (5′[…]3′, biomers, Germany) as published, [52]. A nonsense probe NON338 labeled in Cy5 was used to exclude unspecific probe binding. After incubation in a dark, humid chamber for 2 hours at 50 °C, the slides were rinsed with sterile water, dried, and mounted using Vectashield mounting medium (Vector Laboratories, Burlingame, CA). Image analysis was done using an epifluorescence microscope (Axioplan 2; Carl Zeiss, Jena, Germany) equipped with narrow band filter sets (AHF Analysentechnik, Germany). Image acquisition was performed with an AxioCam MRm (Zeiss, Germany) making use of the AxioVision 4.4 software. Digital image analysis was performed with the daime software. Per group 10 pictures were randomly chosen and analyzed.

[4] = system: planktonic S. aureus; assay: MIC by isothermal microcalorimetry, planktonic bacteria; assay type: cell-based, Staphylococcus aureus; settings: all three tested bouillons (MH++, MH+, MH−), heat flow 24 hours, n = 3
Description: Mueller-Hinton II bouillon with adjusted cations (MH^++; BBL, Germany), Mueller-Hinton bouillon with low cations (MH^+; with 3-4 mg/l Ca^2+ and 5-6 mg/l Mg^2+; Oxoid, Germany) and Mueller-Hinton bouillon without cations (MH^-; Merck, Germany). AMP2 concentrations of 2-33 μg/ml were tested with the three different bouillons and gentamicin concentrations of 0.125-2 μg/ml were analyzed with MH^++. Staphylococcus aureus (ATCC 29213, 300 μl with 10^5 cfu/ml) was added to each microcalorimetry glass ampoule (Waters; […] The ampoules were hermetically sealed and heat flow (W) was measured for 24 hours in the calorimeter TAM III (TA Instruments, USA). […] ROBU […], Germany) in MH^++ bouillon at 37 °C in an aerobe atmosphere for 24 hours. […] Beads were washed again and added to the glass ampoule with fresh MH^++ bouillon. The total heat (J) was measured for 48 hours in the calorimeter. A concentration, which inhibits minimum 90% of biofilm, can be defined as the minimal biofilm inhibitory concentration (MICB). All samples were tested with n = 6.

[5] = system: S. aureus (ATCC 29213); assay: Zone of inhibition test of PDLLA-coated titanium wires; assay type: cell-based, Staphylococcus aureus; settings: 10, 20, 30% w/w in poly(D,L-lactide) coating, n = 3
Description: Titanium wires (diameter 1 mm, Synthes, USA) were coated with Poly(D,L-lactide) (PDLLA, Boehringer Ingelheim, Germany) and incorporated AMP2 at three different concentrations: 10% w/w, 20% w/w, or 30% w/w. Gentamicin/PDLLA (10% w/w) or PDLLA coated wires served as control. Briefly, 100 mg PDLLA was solved in 1.5 ml ethyl acetate and the wires were coated in a dipping procedure. Details of the coating were described previously. Three nails of each group were placed on Mueller-Hinton agar plates plated with S. aureus (ATCC 29213) and the zone of inhibition (ZOI) was quantified after 1, 3, 7, and 14 days using ImageJ software.

[6] = 4 µg/ml AMP2, 24 h in MH++ on 72 h biofilm

KRRWRIWLV [AMP2, 9mer cationic antimicrobial peptide … from an optimized peptide library]
migration after 24 hours ([1]; 67 µg/ml AMP2): reduced the migration of cells | gap size after 48 hours ([1]; 67 µg/ml AMP2, 0.1% FCS, gap at 0 hours = 100%): 71% | migration after 24 hours ([1]; 133 µg/ml AMP2 (data not shown)): no migration was observed | gap after 48 hours ([1]; 133 µg/ml AMP2, 0.1% FCS): still complete open | free-area after 24 hours ([1]; 4–33 µg/ml AMP2 (range also covers positive control and CM without AMP2), 0.1% FCS, gap at 0 hours = 100%): 50–66% | cell-free area after 48 hours ([1]; AMP2 concentrations up to 33 µg/ml, 0.1% FCS, gap at 0 hours = 100%): 12–28% | internalized bacteria compared to 0 μg/ml AMP [= 100%] ([2]; 33 μg/ml, 4 h): 39% | internalized bacteria compared to 0 μg/ml AMP [= 100%] ([2]; 33 μg/ml, 24 h): 3% | internalized bacteria compared to 0 μg/ml AMP [= 100%] ([2]; 67 μg/ml, 4 h): 16% | internalized bacteria compared to 0 μg/ml AMP [= 100%] ([2]; 67 μg/ml, 24 h): 0.18% | reduction of FISH-positive (Cy3) area [3, 6]: 86% | reduction of the biofilm area (DAPI) compared to the untreated group [3, 6]: up to 76% | reduction of FISH-positive (Cy3) area ([3]; 8 µg/ml AMP2, 24 h in MH++ on 72 h biofilm): 90% | MIC (calorimetry) [4]: 8 µg/mL | Zone of Inhibition, activity of incorporated peptide [5]: inhibited the growth of S. aureus in a dose dependent manner
